Columns and labels:
[1] = test system: Meloidogyne spp. (Root-knot nematode); experiment: Meloidogyne spp. contact activity, preventive, pouch test (cucumber); type: in vivo; details: cucumber seed in pouch, test solutions at 200 ppm, galls per root system after twelve days; cis vs trans isomers
Protocol: (§1) Meloidogyne spp. (Root-knot nematode) contact activity, preventive. Pouch test. Filter papers (9 cm×4.5 cm) with a small pocket were placed into plastic pouches (12 cm×6 cm). One cucumber cv. Toshka seed was placed in the centre of the filter paper pocket of all the pouches needed for a test. The cucumber seeds in the pouches were treated with test solutions at 200 ppm by pipetting the solution directly over the cucumber seed in the filter paper pocket in the pouch. Prior to application, the compound solution was prepared at twice the concentration required and the egg suspension is prepared with FORL nutrient solution with 3000 eggs/0.5 ml. After applying all the treatments, 3000 eggs (in 0.5 ml of FORL nutrient solution) were pipetted into the pouches. The pouches were incubated in a moist chamber for twelve days and watered regularly to maintain good filter paper moisture essential for the growing cucumber root system. After this period, the filter paper containing the germinated cucumber seedling was removed from the plastic pouch to assess the number of galls caused by Meloidogyne spp. per root system. […] Meloidogyne spp. (Root-knot nematode) contact activity, preventive, drench test. Cucumber cv. Toshka seeds were sown directly into pots filled with a sandy substrate. Six days later pots were each treated with 5 ml of a WP10 suspension of the test compound at 20 ppm. Hereafter pots were inoculated with 3000 eggs of M. incognita. The trial was harvested fourteen days after trial application and inoculation. Root galling was assessed according to Zeck's gall index (Zeck, 1971).

[2] = test system: Meloidogyne spp. (Root-knot nematode); experiment: Meloidogyne spp. contact activity, preventive, drench test (cucumber in pots); type: in vivo, M. incognita; details: cis vs trans isomers
Protocol: as §1, with “Filter” for “Meloidogyne spp. (Root-knot nematode) contact activity, preventive. Pouch test. Filter”

| SMILES | melting point [°C] | Nem 1 (Meloidogyne spp. contact activity, preventive, pouch test; % galling) [1] [%] | Nem 2 (Meloidogyne spp. contact activity, preventive, drench test; % galling) [2] [%] |
| --- | --- | --- | --- |
| O=C(N[C@@H]1CCC1c1ccc(Cl)cc1Cl)c1ccccc1C(F)(F)F (some centres unmarked) [57.009] | 126 to 128 | 100 | – |
| O=C(N[C@H]1CCC1c1ccc(Cl)cc1Cl)c1ccccc1C(F)(F)F (stereo partly drawn) [57.009trans] | 147 to 148 | 68 | 48 |
| O=C(NC1CCC1c1ccc(Cl)cc1Cl)c1cccnc1C(F)(F)F (centres unmarked) [57.011] | – | 100 | 100 |
| O=C(NC1CCC1c1ccc(Cl)cc1Cl)c1ncccn1 (centres unmarked) [57.012] | – | 98 | 83 |
| O=C(NC1CCC1c1ccc(Cl)cc1F)c1c(F)cccc1F (centres unmarked) [57.014] | – | 93 | 100 |
